Test results as given in patent US10948480B2, “Immunity to folate receptors” (priority 2006, dated 2021).
Where “and” joins values, the source holds several entries; their conditions need not be identical. Equal values may be shown once.

Experiments:
[1] = system: antibodies in diluted serums; type: binding, human
PBMCs (T cells) = test: 10-day IFN-γ ELIspot for low-frequency T cells; type: cell-based, human; details: for Healthy Donor Proportion (%) responding: healthy donors; for Healthy Donor Proportion (%) responding / Patients Proportion (%) responding: 10 μg/mL polypeptide, positive = p<0.05 vs no antigen and >1:100,000; for Patients Proportion (%) responding: breast and ovarian cancer patients
Description: An equal volume of Hank's balanced salt solution (HBSS) was added to the blood samples. Twenty-five mL of diluted blood was overlaid onto 15 mL of Ficoll-Paque in a 50 mL conical test tube centrifuged at 374×g for 35 minutes at room temperature. Following centrifugation, the buffy coats were centrifuged (12 minutes, 216×g). The cell pellets were washed and resuspended in freezing media (RPMI supplemented with 12.5% HSA, penicillin, streptomycin, and 2 mM glutamine). Cells were adjusted to 20×10^6/mL cells, and an equal volume of cold 12.5% HSA RPMI containing 25% DMSO (Sigma D2650) was added. Cells were aliquoted and transferred to a −80° C. freezer. After overnight incubation, the vials were transferred to liquid nitrogen.
For in vitro assay, each vial of cells was thawed, and the contents were transferred to a test tube containing 12 mL of cell culture media. Following centrifugation, the cells were resuspended in 2-3 mL of medium, and viability was determined by dye exclusion. The mean number of PBMC purified from the blood of donors was 1.6±0.07×10^6 cells/mL of whole blood for healthy donors and 1.0±0.07×10^6/mL for cancer patients (p<0.0001). This cryopreservation and thawing procedure was optimized for recovery of antigen-specific T cell function (Disis et al., J. Immunol. Methods, 308(1-2):13-8 (2006)).
A 10-day ELIspot for detecting low-frequency T cells was used to determine reactivity to the FRα-derived polypeptides (Table 1). ELIspots were carried out in groups of two donors (two healthy donors, one healthy donor/one cancer patient, or two cancer patients). The assay was carried out as described elsewhere (Knutson et al., J. Clin. Invest., 107:477-84 (2001)). On day 1, 2.5×10^5 PBMCs/well were plated into 96-well plates in 3-well replicates in 200 μL of RPMI-1640 containing L-glutamine, penicillin, streptomycin, and 10% fetal calf serum (T-cell medium) in the presence or absence of 10 μg/mL polypeptide antigen. The cells were incubated at 37° C. and IL-2 (Zeptometric, Inc., Buffalo, N.Y.) was added to 10 U/mL on day 5. On day 8, 2.5×10^5/well irradiated autologous PBMCs and 10 μg/mL antigens were added. On day 9, the cells were transferred to an anti-IFN-γ-coated nitrocellulose (NC)-plate (Millipore Corporation, Bedford, Mass.). The NC-plate was incubated (37° C.) for a further 20-24 hours followed by washing three times using PBS containing 0.05% Tween-20. The plate was then incubated for 2.5 hours at RT in PBS with 5 μg/mL biotinylated anti-IFN-γ Ab, washed in PBS, and further incubated with 100 μL/well avidin-horseradish peroxidase (HRP, Vector Laboratories, Burlingame, Calif.)) for 2 hours at room temperature. After three washes in PBS, the plate was incubated with 100 μL/well HRP-colorimetric substrate (Vector Laboratories) for 20-30 minutes, rinsed with cool tap water, and allowed to dry completely. The nitrocellulose plates were read on an AID ELIspot reader (Cell Technology, Inc., Columbia, Md.; reader software v.3.1.1.). […] A 17-amino acid polypeptide (KISQAVHAAHAEINEAG; SEQ ID NO: 1) derived from chicken egg ovalbumin, produced in the same fashion as the FRα polypeptides, was used as a control polypeptide. […] The anti-IFN-γ and biotinylated anti-IFN-γ antibody pair were obtained from Mabtech (Sweden).
The T cell magnitude for each donor was summed across all 14 polypeptides which, along with the response multiplicity, was compared with age using regression. Student's t test was used for means unless the data were not normally distributed, in which case Mann-Whitney test was used. Fisher's Exact Test was used for comparing proportions. A proportion was considered elevated, relative to other polypeptides, if that proportion was statistically elevated relative to the mean proportion, 8.7%, which is the ratio of the total number of significant (p<0.05, two-tailed t test) polypeptide-specific responses over the total number of donors. […]

[2] = system: PBMC (CD4 and CD8 T cells); test: IFN-γ cytokine flow cytometry; type: cell-based, human; details: PBMC from three patients that had responded to FR56
Description: PBMC were cultured with peptide (10 μg/mL) for seven days. IL-2 (20 U/mL) were added on Day 3. After seven days, the cells were distributed into a 96-well plate with fresh irradiated autologous PBMC. Either medium alone or medium supplemented with PHA-L (20 μg/well) or recall polypeptide (10 μg/well) was added to the appropriate wells for 29 hours. Golgi-Stop was added for the last five hours followed by washing in PBS-0.5% BSA. The cells were resuspended in the same buffer containing anti-CD4-FITC and anti-CD8-APC for 30 minutes, followed by washes and fixing. The cells were permeabilized alone or with unconjugated anti-human IFN-γ (adsorption control) followed by washing and incubation with anti-human anti-IFN-γ-APC for 30 minutes. The cells were washed, fixed, and analyzed using a BD Biosciences FACscan flow cytometer and CellQuest Pro Software (version 4.0.2., BD Biosciences). A response to antigen was considered as positive if there was at least a 50% increase in IFN-γ[…] cells, and it was blocked by the adsorption control.

## tetanus toxin [TT]
[1]
  Antibody responses: 30 ± 4 µg/mL and 27 ± 4 µg/mL

## LGPWIQQVDQSWRKERV (listed as Homo sapiens) [FR113]
PBMCs (T cells)
  Healthy Donor Proportion (%) responding: 0%

## VDQSWRKERVLNVPL (listed as Homo sapiens) [FR120]
PBMCs (T cells)
  Patients Proportion (%) responding: 13%
  Healthy Donor Proportion (%) responding: 11%

## QCRPWRKNACCSTNT (listed as Homo sapiens) [FR56]
[2]
  patients with CD4 T cell response: All three
  patients with CD8 T cell response: two of three
PBMCs (T cells); healthy donor 15, no antigen control 5±1
  ELIspot response: 3±1 spots/well
PBMCs (T cells)
  Healthy Donor Proportion (%) responding: 6%
PBMCs (T cells); p=0.05
  recognition by ovarian vs breast cancer patients: recognized more often
PBMCs (T cells); patient 37, mean±s.e.m., n=3, no antigen 26±2
  ELIspot response: 183±17 spots/well

## PWAAWPFLLSLALMLLWL (listed as Homo sapiens) [FR238]
PBMCs (T cells)
  Patients Proportion (%) responding: 23%

## MTTQLLLLLVWVAVVGEAQ (listed as Homo sapiens) [FR5]
PBMCs (T cells)
  Patients Proportion (%) responding: 17%
  Healthy Donor Proportion (%) responding: 6%

## KISQAVHAAHAEINEAG (listed as Gallus gallus) [ovalbumin-derived control polypeptide, reference compound]
PBMCs (T cells); comparison of the two populations (FIG. 3A)
  responses in patients vs healthy donors: not different

## ACKRHFIQDTCLYECS (listed as Homo sapiens) [FR95]
PBMCs (T cells)
  Patients Proportion (%) responding: 23%
  Healthy Donor Proportion (%) responding: 6%

## RTSYTCKSNWHKGWNWT (listed as Homo sapiens) [FR147]
PBMCs (T cells)
  Patients Proportion (%) responding: 40%
  Healthy Donor Proportion (%) responding: 22%

## RTELLNVCMNAKHHKEK (listed as Homo sapiens) [FR30]
PBMCs (T cells)
  Healthy Donor Proportion (%) responding: 6%

## VARFYAAAMSGAGPWA (listed as Homo sapiens) [FR225]
PBMCs (T cells)
  Patients Proportion (%) responding: 7%
  Healthy Donor Proportion (%) responding: 22%

## WHKGWNWTSGFNKCAVGA (listed as Homo sapiens) [FR156]
PBMCs (T cells)
  Patients Proportion (%) responding: 23%
  Healthy Donor Proportion (%) responding: 17%

## DCEQWWEDCRTSYTCK (listed as Homo sapiens) [FR138]
PBMCs (T cells)
  Patients Proportion (%) responding: 30%
  Healthy Donor Proportion (%) responding: 22%

## KDVSYLYRFNWNHCGEMA (listed as Homo sapiens) [FR76]
PBMCs (T cells)
  Patients Proportion (%) responding: 13%
  Healthy Donor Proportion (%) responding: 11%

## LLVWVAVVGEAQTRI (listed as Homo sapiens) [FR12]
PBMCs (T cells)
  Patients Proportion (%) responding: 7%
  Healthy Donor Proportion (%) responding: 6%

## CKSNWHKGWNWTSGFN (listed as Homo sapiens) [FR152]
PBMCs (T cells)
  Patients Proportion (%) responding: 23%
  Healthy Donor Proportion (%) responding: 6%
